Publication PMC6136712, “Ex vivo drug sensitivity testing as a means for drug repurposing in esophageal adenocarcinoma” (PLoS ONE, 2018)
Where two headings read alike, the source gives them in different places.

Columns and labels:
Format in all cases: cell-based, human
EAC47 cells [1] = test: Epigenetic compound library screen (CellTiter-Glo, 72 h); conditions: EAC47, 6μM; for cytotoxicity at 6 µM: Homo sapiens, read-out: % cell killing /control; for cytotoxicity at 6 µM / % cell killing /control: 72 h
Description: (§1) We tested a 163 compound epigenetic library that consists of inhibitors and activators of epigenetic modifying enzymes (writers, erasers and readers). All compounds were dissolved in 100% DMSO and tested in duplicate at a nominal test concentration of 6μM. Wells with assay buffer containing DMSO served as negative controls. 1000 exponentially growing cells were seeded per well in 384-well micro-titer plates and incubated in the presence of compounds in a humidified environment at 37°C and 5% CO2. After 72 hours of treatment, cell viability was assessed by measuring ATP levels via bioluminescence (CellTiter-Glo, Promega). […] Curve fitting and statistical analyses are performed in GraphPad prism.

OE33 cells [2] = test: as above; conditions: OE33, 6μM; for cytotoxicity at 6 µM: Homo sapiens, read-out: % cell killing /control
Description: as §1

Flo-1 cells [3] = test: as above; conditions: Flo-1, 6μM; for cytotoxicity at 6 µM: Homo sapiens, read-out: % cell killing /control
Description: as §1

[4] = system: normal esophageal epithelium cell line EACN42; test: FDA library drug sensitivity testing (CellTiter-Glo, 72 h), normal control cells; parameters: key to DSS: modified drug sensitivity score (DSSmod) from dose-response curve fit; conditions: 72 h, EACN42 normal esophageal cells; for EC50: cell viability (ATP), max test concentration 10μM; for DSS: drug sensitivity score
Summary of the method: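 HPV E6-E7-immortalized normal human esophageal epithelial cells, 1000 per well, exposed 72 h at 37 °C to drugs in duplicate from 10μM top concentration across a 20,000-fold range. Viability by ATP bioluminescence; DMSO wells as negative control; curves scored with modified drug sensitivity score (DSSmod).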

EAC42 cells = test: FDA library drug sensitivity testing (CellTiter-Glo, 72 h)
Text: (§2) OE33, OE19 and SKGT2 human esophageal adenocarcinoma cell lines were obtained from the European Collection of Cell Culture ([…]). Flo1, EAC42 and EAC47 cells were established in the Capobianco Laboratory. EAC42 and EAC47 human esophageal adenocarcinoma cell lines are derived from patients undergoing surgery at the Miller School of Medicine, University of Miami. The Capobianco laboratory obtained written informed consent from all patients and approval from the Institutional Research Ethics Committee.
(§3) Drug sensitivity testing (DST) was performed as described previously. […] Individual drugs were dissolved in 100% DMSO and tested in duplicates starting at a maximal test concentration of 10μM then over a 20,000-fold concentration range to generate dose response curves. Wells with assay buffer containing DMSO served as negative controls. 1000 exponentially growing cells were seeded per well in 384-well micro-titer plates and incubated in the presence of compounds in a humidified environment at 37°C and 5% CO2. After 72 hours of treatment, cell viability was assessed by measuring ATP levels via bioluminescence (CellTiter-Glo, Promega) according to manufactures recommendations. Interpretation of curve parameters was performed according to the modified drug sensitivity scoring (DSSmod) function developed by Swords et al. […] Given in this way, the sDSSmod incorporated information on each drug’s potency, efficacy, effect range and therapeutic index, making it possible to prioritize compounds over multiple parameters using a single numerical metric. […] All calculations and scoring routines are implemented in MatLab and additional curve fitting and statistical analyses are performed in GraphPad prism.

EAC47 cells [5] = test: as above
Text: as §2, §3

OE19 cells = test: as above; conditions: sDSSmod = DSSmod (patient cells) - DSSmod (normal cells)
Text: as §2, §3

OE33 cells [6] = test: as above
Text: as §2, §3

SK-GT2 cells = test: as above
Text: as §2, §3

Flo-1 cells [7] = test: as above
Text: as §2
Drug sensitivity testing (DST) was performed as described previously. […] Individual drugs were dissolved in 100% DMSO and tested in duplicates starting at a maximal test concentration of 10μM then over a 20,000-fold concentration range to generate dose response curves. Wells with assay buffer containing DMSO served as negative controls. 1000 exponentially growing cells were seeded per well in 384-well micro-titer plates and incubated in the presence of compounds in a humidified environment at 37°C and 5% CO2. After 72 hours of treatment, cell viability was assessed by measuring ATP levels via bioluminescence (CellTiter-Glo, Promega) according to manufactures recommendations. Interpretation of curve parameters was performed according to the modified drug sensitivity scoring (DSSmod) function developed by Swords et al. As a final step, the selective DSSmod (sDSSmod) for each drug in each patient screen is calculated according to the formula sDSSmod = DSSmod (patient cells)—DSSmod (normal cells). Given in this way, the sDSSmod incorporated information on each drug’s potency, efficacy, effect range and therapeutic index, making it possible to prioritize compounds over multiple parameters using a single numerical metric. In addition, this methodology allows us to rank compounds by cancer-selective efficacy for each individual patient. […] All calculations and scoring routines are implemented in MatLab and additional curve fitting and statistical analyses are performed in GraphPad prism.

[8] = EAC42, sDSSmod = DSSmod (patient cells) - DSSmod (normal cells)
[9] = EAC47, sDSSmod = DSSmod (patient cells) - DSSmod (normal cells)
[10] = OE33, sDSSmod = DSSmod (patient cells) - DSSmod (normal cells)
[11] = SK-GT2, sDSSmod = DSSmod (patient cells) - DSSmod (normal cells)
[12] = Flo-1, sDSSmod = DSSmod (patient cells) - DSSmod (normal cells)

With `Nc1nc(=O)n([C@H]2C[C@H](O)[C@@H](CO)O2)cc1F` [2'-Deoxy-5-fluorocytidine] the cytotoxicity at 6 µM (EAC47 cells [1]) was 86.8% and the cytotoxicity at 6 µM (OE33 cells [2]) was 65.2%.
For `CN(C)c1ccc(C(=O)NCCCCCCC(=O)NO)cc1` [M-344], the “% cell killing /control” value (Flo-1 cells [3]) was 56.82% and the “% cell killing /control” value (OE33 cells [2]) was 68.75%.
`Cc1cc(C)cc(C(=O)NOCCCCCC(=O)NO)c1` [LMK 235] was tested, and the “% cell killing /control” value (EAC47 cells [1]) was 62.72% and the “% cell killing /control” value (OE33 cells [2]) was 80.31%.
`CC(C)[C@H](C(=O)Nc1ccc(C(=O)NO)cc1)c1ccccc1` [(S)-HDAC-42] was tested, and the cytotoxicity at 6 µM (EAC47 cells [1]) was 76.5%, the cytotoxicity at 6 µM (Flo-1 cells [3]) was 84.6% and the cytotoxicity at 6 µM (OE33 cells [2]) was 89.3%.
`O=C(/C=C/c1cccc(S(=O)(=O)Nc2ccccc2)c1)NO` [Belinostat] showed an EC50 ([4]; Homo sapiens) of 1.08 µM, a DSS [4] of 19 and a sDSSmod (EAC42 cells; [8]) of 10.9. It also gave a sDSSmod (EAC47 cells [5]; [9]) of 6.846, a sDSSmod (OE19 cells) of -19.002 and a sDSSmod (OE33 cells [6]; [10]) of -19.002. It also gave a sDSSmod (SK-GT2 cells; [11]) of -19.002 and a sDSSmod (Flo-1 cells [7]; [12]) of -19.
With `CN(C)Cc1c(C(=O)NCCOc2ccc(C(=O)NO)cc2)oc2ccccc12` [PCI-24781 (Abexinostat), Abexinostat] the cytotoxicity at 6 µM (OE33 cells [2]) was 46%.
For `CC(C)C[C@H](NC(=O)[C@H](Cc1ccccc1)NC(=O)c1cnccn1)B(O)O` [Bortezomib], the EC50 ([4]; Homo sapiens) was 0.2 µM, the DSS [4] was 35.58 and the sDSSmod (EAC42 cells; [8]) was -21.0264. The sDSSmod (EAC47 cells [5]; [9]) was -23.5292, the sDSSmod (OE19 cells) was -35.5757 and the sDSSmod (OE33 cells [6]; [10]) was -35.5757. The sDSSmod (SK-GT2 cells; [11]) was -35.5649 and the sDSSmod (Flo-1 cells [7]; [12]) was -35.57.
`Cc1sc2c(c1C)C(c1ccc(Cl)cc1)=N[C@@H](CC(N)=O)c1nnc(C)n1-2` [CPI203] was tested, and the sensitivity in words (EAC47 cells [1]) was “sensitivity”, the “% cell killing /control” value (EAC47 cells [1]) was 43.29% and the “% cell killing /control” value (Flo-1 cells [3]) was 48.79%.
Work on `CC(C)n1c(/C=C/C(O)CC(O)CC(=O)O)c(-c2ccc(F)cc2)c2ccccc21` (stereo not shown) [Fluvastatin sodium] yielded an EC50 ([4]; Homo sapiens) of 1.06 µM, a DSS [4] of 17.36 and a sDSSmod (EAC42 cells; [8]) of -14.3727. For the same compound, the sDSSmod (EAC47 cells [5]; [9]) was -15.1417, the sDSSmod (OE19 cells) was -16.7184 and the sDSSmod (OE33 cells [6]; [10]) was -10.5948. For the same compound, the sDSSmod (SK-GT2 cells; [11]) was -17.1525 and the sDSSmod (Flo-1 cells [7]; [12]) was -9.71.
`O=C(CCCCCCC(=O)Nc1ccccc1)NO` [SAHA] was tested, and the “% cell killing /control” value (Flo-1 cells [3]) was 46.32%.
For `CCN(CC)Cc1ccc2cc(COC(=O)Nc3ccc(C(=O)NO)cc3)ccc2c1` [Givinostat (ITF2357), Givinostat], the cytotoxicity at 6 µM (EAC47 cells [1]) was 96.8%, the cytotoxicity at 6 µM (Flo-1 cells [3]) was 90.9% and the cytotoxicity at 6 µM (OE33 cells [2]) was 87.7%.
Bleomycin sulfate showed an EC50 [4] of 0.37 µM, a DSS [4] of 30.58 and a sDSSmod (EAC42 cells) of -29.1318. For the same compound, the sDSSmod (EAC47 cells [5]) was -29.4923, the sDSSmod (OE19 cells) was -18.9933 and the sDSSmod (OE33 cells [6]) was -15.1946. It also gave a sDSSmod (SK-GT2 cells) of -29.9671 and a sDSSmod (Flo-1 cells [7]) of -18.12.
In the case of `COc1ccc(-c2nc(N3CCOCC3)c3sc(CN(C)c4ncc(C(=O)NO)cn4)cc3n2)cn1` [CUDC-907], the cytotoxicity at 6 µM (EAC47 cells [1]) is reported as 115%, the cytotoxicity at 6 µM (Flo-1 cells [3]) is reported as 99.7% and the cytotoxicity at 6 µM (OE33 cells [2]) is reported as 99.4%.
For `CC[C@@H]1C(=O)N(C)c2cnc(Nc3ccc(C(=O)NC4CCN(C)CC4)cc3OC)nc2N1C1CCCC1` [BI-2536], the cytotoxicity at 6 µM (EAC47 cells [1]) was 39.5%, the cytotoxicity at 6 µM (Flo-1 cells [3]) was 95.9% and the cytotoxicity at 6 µM (OE33 cells [2]) was 77.6%.
